In PMC7824903, “Dual Carbonic Anhydrase IX/XII Inhibitors and Carbon Monoxide Releasing Molecules Modulate LPS-Mediated Inflammation in Mouse Macrophages” (Antioxidants, 2021) one finds Ki and KI data, which are given here for 7 compounds.

pKi: −log10 of the molar value.

For test [1], the target named is T1, hCA IX (Homo sapiens, UniProt Q16790).
T1 construct: gene CA9; recombinant, obtained in-house
The experiment in a line: stopped-flow CO2 hydrase assay. It is filed as biochemical.

Test [2] deals with T2, hCA XII (Homo sapiens, UniProt O43570).
T2 construct: gene CA12; recombinant, obtained in-house
T2 sequence (O43570 30-289 limits assumed): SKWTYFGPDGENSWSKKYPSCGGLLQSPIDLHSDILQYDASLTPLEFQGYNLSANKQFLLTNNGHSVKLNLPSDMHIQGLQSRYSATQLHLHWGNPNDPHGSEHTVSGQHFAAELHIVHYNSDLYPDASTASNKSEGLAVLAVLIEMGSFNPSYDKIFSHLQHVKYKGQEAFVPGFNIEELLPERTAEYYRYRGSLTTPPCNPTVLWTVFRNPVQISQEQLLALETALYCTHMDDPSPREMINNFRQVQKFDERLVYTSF
The experiment in a line: stopped-flow CO2 hydrase assay. Type of test: biochemical.

For the next test, the target named is T3, hCA II (Homo sapiens, UniProt P00918).
T3 construct: gene CA2; recombinant, obtained in-house
The experiment in a line: biochemical. Also noted: Stopped-flow CO2 hydrase assay, phenol red absorbance at 557 nm, KI by Cheng-Prusoff. As for the experimental part: (§1) An Applied Photophysics stopped-flow instrument has been used for assaying the CA catalysed CO2 hydration activity. Phenol red (at a concentration of 0.2 mM) has been used as indicator, working at the absorbance maximum of 557 nm, with 20 mM Hepes (pH 7.5) as buffer, and 20 mM Na2SO4 (for maintaining constant the ionic strength), following the initial rates of the CA-catalyzed CO2 hydration reaction for a period of 10–100 s. The CO2 concentrations ranged from 1.7 to 17 mM for the determination of the kinetic parameters and inhibition constants. For each inhibitor at least six traces of the initial 5–10% of the reaction have been used for determining the initial velocity. The uncatalyzed rates were determined in the same manner and subtracted from the total observed rates. Stock solutions of inhibitor (0.1 mM) were prepared in distilled-deionized water and dilutions up to 0.01 nM were done thereafter with the assay buffer. Inhibitor and enzyme solutions were preincubated together for 15 min at room temperature prior to assay, to allow for the formation of the E-I complex. The inhibition constants were obtained by non-linear least-squares methods using PRISM 3 and the Cheng–Prusoff equation, as reported earlier, and represent the mean from at least three different determinations. All CA isoforms were recombinant ones obtained in-house as reported earlier. […] DCH/CO-RM derivatives 1–10 were therefore investigated as inhibitors of the hCAs I, II, IX, and XII by means of the Stopped-Flow CO2 hydrase assay.

The target in test [3] is T1, hCA IX. Briefly: biochemical. The arrangement: Stopped-flow CO2 hydrase assay, phenol red absorbance at 557 nm, KI by Cheng-Prusoff. Here is the method: as §1
A further test concerns the target T4, hCA I (Homo sapiens, UniProt P00915).
T4 construct: gene CA1; recombinant, obtained in-house
Briefly: biochemical. Also noted: Stopped-flow CO2 hydrase assay, phenol red absorbance at 557 nm, KI by Cheng-Prusoff. Here is the method:
as §1

The target of test [4] is T2, hCA XII. The experiment in a line: biochemical. Also noted: Stopped-flow CO2 hydrase assay, phenol red absorbance at 557 nm, KI by Cheng-Prusoff. As for the experimental part: as §1
In test [5] the target is T1, hCA IX. Briefly: stopped-flow CO2 hydrase assay. It is filed as biochemical. The settings on record: CO2 […], […] Hepes pH […] Na2SO4, […] min preincubation at room temperature.
Test [6] concerns the target T2, hCA XII. The experiment in a line: stopped-flow CO2 hydrase assay. It is filed as biochemical. The note with it: CO2 […], […] Hepes pH […] Na2SO4, […] min preincubation at room temperature.

T4 sequence (P00915 2-261): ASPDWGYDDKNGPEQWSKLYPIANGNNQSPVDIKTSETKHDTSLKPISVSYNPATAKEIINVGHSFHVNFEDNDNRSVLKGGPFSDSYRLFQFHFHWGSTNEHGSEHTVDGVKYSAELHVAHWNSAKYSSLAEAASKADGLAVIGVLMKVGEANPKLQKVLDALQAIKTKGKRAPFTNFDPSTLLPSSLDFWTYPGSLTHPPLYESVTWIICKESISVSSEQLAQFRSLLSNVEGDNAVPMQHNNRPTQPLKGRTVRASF

`C#CCOc1ccc2oc(=O)c(C(=O)c3ccccc3)cc2c1` [g, 3-benzoyl-6-(prop-2-yn-1-yloxy)-2H-chromen-2-one]: the values for the negative logarithm of the Ki (pKi) on hCA IX [1] and on hCA XII [2] were 6.50 and 6.45, respectively.

In the case of `C#CCOC1=NS(=O)(=O)OC(C)=C1` [a], the pKi on hCA IX [1] (CO2 […], […] Hepes pH […] Na2SO4, […] min preincubation at room temperature) is 6.60.

For `C#CCOc1ccc(C2=NN(C(C)=O)C(c3ccccc3OC)C2)cc1` (stereo not shown) [i], the Ki at hCA II, on hCA IX [3], on hCA I and on hCA XII [4] was above 100000 nM in each case.

For `C#CCOc1ccc(-c2nc3ccccc3n2-c2ccccc2)cc1` [l], the inhibitory constant (Ki) on hCA II, on hCA IX [3], at hCA I and at hCA XII [4] was above 100000 nM throughout.

For `C#CCN1C(=O)C=C(C)OS1(=O)=O` [b, 6-methyl-3-(prop-2-yn-1-yl)-1,2,3-oxathiazin-4(3H)-one 2,2-dioxide], the values for the Ki at hCA IX [3] and at hCA XII [4] were 358 nM and 378 nM, respectively. Moreover, the KI result was “compound b exhibited a loss of inhibitory activity after the CO releasing group linkage” at hCA IX [5]; “Compounds a and b showed better inhibitory activity against isoform XII” at hCA XII [6].

For the compound `C#CCOc1cccc2cc(C(=O)c3ccccc3)c(=O)oc12` [f, 3-benzoyl-8-(prop-2-yn-1-yloxy)-2H-chromen-2-one], the Ki on hCA II is above 100000 nM; on hCA I, above 100000 nM; on hCA XII [4], 4920 nM. Besides, the negative-log Ki (pKi) on hCA IX [1] is 6.16. Besides, the KI entry at hCA XII [6] is reported as “maintained unchanged their inhibitory activity against hCA XII”.

Take `C#CCOc1cccc2cc(C(=O)OCC)c(=O)oc12` [h, ethyl 2-oxo-8-(prop-2-yn-1-yloxy)-2H-chromene-3-carboxylate]: the inhibition constant (Ki) at hCA II and at hCA I was above 100000 nM in each case.
